# According to patent US11780840B2 (Incyte Corporation, priority 2020, dated 2023):
# Key:
# [1] = target: T1, pseudo-kinase domain (JH2, amino-acids 536-812 with 3 surface mutations W659A, W777A, F794H) of human V617F mutant JAK2 (Homo sapiens, UniProt O60674, F794H/V617F/W659A/W777A); assay: JAK2 LanthaScreen JH2-V617F Binding Assay; details: JAK2 JH2-V617F (0.26 nM), 50 nM Fluorescent JAK2-JH2 Tracer, 1 hour at 25° C.; read-out: JH2 BIND V617F
# T1 construct: pseudo-kinase domain (JH2, amino-acids 536-812 with 3 surface mutations W659A, W777A, F794H); His (C); Avi (biotinylated) (C); purchased BPS Bioscience 79498; host or cells: baculovirus expression system
# In short: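 TR-FRET tracer displacement: 0.26 nM protein, 50 nM tracer, 0.25 nM SA-Tb, 50 mM Tris pH 7.5, 10 mM MgCl2, 5 mM DTT; 1 h, 25° C. NSB = 2 mM ATP. IC50, 4-parameter curve.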
# [2] = target: T2, pseudo-kinase domain (JH2, amino-acids 536-812 with 3 surface mutations W659A, W777A, F794H) of human Wild Type JAK2 (Homo sapiens, UniProt O60674, F794H/W659A/W777A); assay: JAK2 LanthaScreen JH2-WT Binding Assay; details: JAK2 JH2-WT (0.145 nM), 50 nM Fluorescent JAK2-JH2 Tracer, 1 hour at 25° C.; read-out: JH2 BIND WT
# T2 construct: pseudo-kinase domain (JH2, amino-acids 536-812 with 3 surface mutations W659A, W777A, F794H); His (C); Avi (biotinylated) (C); purchased BPS Bioscience 79463; host or cells: baculovirus expression system
# In short: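 Compounds, serially diluted, were mixed with 0.145 nM JH2 domain, 50 nM tracer and 0.25 nM streptavidin-Tb cryptate, then incubated 1 hour at 25° C before LanthaScreen reading. Wells containing 2 mM ATP defined non-specific binding. Four-parameter dose-response curves gave IC50.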
# [3] = target: T3, catalytic domain (JH1, amino acids 826-1132) of human JAK2 (Homo sapiens, UniProt O60674); assay: JAK2 LanthaScreen JH1 Binding Assay; details: JAK2 JH1 (1.5 nM), 50 nM fluorescent JAK2-JH1 tracer, 2 hours at 25° C.; read-out: JH1 BIND
# T3 construct: catalytic domain (JH1, amino acids 826-1132) of human JAK2; FLAG (N); purchased Carna Biosciences 08-445-20N; host or cells: baculovirus expression system
# In short: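 TR-FRET tracer-displacement format: compound IC50 from four-parameter curves after 2 h at 25° C. Reaction held 1.5 nM biotinylated, FLAG-tagged JH1 (aa 826-1132), 50 nM tracer, 0.5 nM Streptavidin-Tb, pH 7.5 Tris buffer; 2 mM ATP set nonspecific background.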
# T3 sequence (O60674 826-1132): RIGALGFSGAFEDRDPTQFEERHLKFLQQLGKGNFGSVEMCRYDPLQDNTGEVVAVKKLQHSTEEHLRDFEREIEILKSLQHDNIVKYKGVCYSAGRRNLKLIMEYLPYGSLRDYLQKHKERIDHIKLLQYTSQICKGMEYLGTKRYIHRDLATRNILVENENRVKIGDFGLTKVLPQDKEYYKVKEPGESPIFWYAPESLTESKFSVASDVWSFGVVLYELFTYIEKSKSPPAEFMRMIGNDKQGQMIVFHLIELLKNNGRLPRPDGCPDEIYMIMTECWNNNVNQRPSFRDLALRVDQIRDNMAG
# T2 sequence (O60674 536-812 W659A/W777A/F794H): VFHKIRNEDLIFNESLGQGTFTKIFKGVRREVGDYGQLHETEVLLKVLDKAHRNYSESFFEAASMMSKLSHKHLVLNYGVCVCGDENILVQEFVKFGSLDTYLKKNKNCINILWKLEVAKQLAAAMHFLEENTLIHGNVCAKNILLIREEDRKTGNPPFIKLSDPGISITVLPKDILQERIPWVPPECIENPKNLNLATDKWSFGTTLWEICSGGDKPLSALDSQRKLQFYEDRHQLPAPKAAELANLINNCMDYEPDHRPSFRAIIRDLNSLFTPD
# T1 sequence (O60674 536-812 V617F/W659A/W777A/F794H): as the sequence (O60674 536-812 W659A/W777A/F794H) above, with V82F counted along it
Structure (SMILES),IC50 [1] [nM],IC50 [2] [nM],IC50 [3] [nM]
"Cn1cc(-c2[nH]c3ncc4c(c3c2-c2ccc3c(cnn3C)c2)n(C2CCOCC2)c(=O)n4C)cn1 [Example 48, 3-Methyl-8-(1-methyl-1H-indazol-5-yl)-7-(1-methyl-1H-pyrazol-4-yl)-1-(tetrahydro-2H-pyran-4-yl)-3,6-dihydroimidazo[4,5-d]pyrrolo[2,3-b]pyridin-2(1H)-one]",≤ 10,≤ 10,> 1000
"Cn1c(=O)n(C2CCOCC2)c2c3c(-c4ccc(C5(C#N)CC5)cc4)c(-c4ccc(CN5CCC(S(C)(=O)=O)CC5)cc4)[nH]c3ncc21 [Example 49, 1-(4-(3-Methyl-7-(4-((4-(methylsulfonyl)piperidin-1-yl)methyl)phenyl)-2-oxo-1-(tetrahydro-2H-pyran-4-yl)-1,2,3,6-tetrahydroimidazo [4,5-d]pyrrolo[2,3-b]pyridin-8-yl)phenyl)cyclo-propane-1-carbonitrile]",≤ 10,≤ 10,100 to 500
"CC(C)n1c(=O)n(C)c2cnc3[nH]c(-c4cnn(CC(C)(C)O)c4)c(-c4ccc(C5(C#N)CC5)cc4)c3c21 [Example 50, 1-(4-(7-(1-(2-Hydroxy-2-methylpropyl)-1H-pyrazol-4-yl)-1-isopropyl-3-methyl-2-oxo-1,2,3,6-tetrahydroimidazo [4,5-d]pyrrolo[2,3-b]pyridin-8-yl)phenyl) cyclopropane-1-carbonitrile]",≤ 10,≤ 10,500 to 1000
"Cn1c(=O)n(C2CCOCC2)c2c3c(-c4ccc(C5(N6CCOCC6)CC5)cc4)c(-c4cnn(CC(C)(C)O)c4)[nH]c3ncc21 [Example 51, 7-(1-(2-Hydroxy-2-methylpropyl)-1H-pyrazol-4-yl)-3-methyl-8-(4-(1-morpholinocyclo-propyl)phenyl)-1-(tetrahydro-2H-pyran-4-yl)-3,6-dihydroimidazo[4,5-d]pyrrolo[2,3-b]pyridin-2(1H)-one]",≤ 10,≤ 10,> 1000
"Cn1ncc2cc(-c3c(-c4ccc(CN5CCC(S(C)(=O)=O)CC5)cc4)[nH]c4ncc5c(c34)n(C3CCCC3)c(=O)n5C)ccc21 [Example 52, 1-Cyclopentyl-3-methyl-8-(1-methyl-1H-indazol-5-yl)-7-(4-((4-(methylsulfonyl)piperidin-1-yl)methyl)phenyl)-3,6-dihydroimidazo[4,5-d]pyrrolo[2,3-b]pyridin-2(1H)-one]",≤ 10,≤ 10,100 to 500
"Cn1ncc2cc(-c3c(-c4cnn(Cc5ccncc5)c4)[nH]c4ncc5c(c34)n(C3CCCC3)c(=O)n5C)ccc21 [Example 53, 1-Cyclopentyl-3-methyl-8-(1-methyl-1H-indazol-5-yl)-7-(1-(pyridin-4-ylmethyl)-1H-pyrazol-4-yl)-3,6-dihydroimidazo[4,5-d]pyrrolo[2,3-b]pyridin-2(1H)-one]",≤ 10,≤ 10,100 to 500
"COCCn1cc(-c2[nH]c3ncc4c(c3c2-c2ccc3c(cnn3C)c2)n(C2CCCC2)c(=O)n4C)cn1 [Example 54, 1-Cyclopentyl-7-(1-(2-methoxyethyl)-1H-pyrazol-4-yl)-3-methyl-8-(1-methyl-1H-indazol-5-yl)-3,6-dihydroimidazo[4,5-d]pyrrolo[2,3-b] pyridin-2(1H)-one]",≤ 10,≤ 10,100 to 500
"CC(C)n1c(=O)n(C)c2cnc3[nH]c(-c4cnn(CC(C)(C)O)c4)c(-c4ccc5c(cnn5C)c4)c3c21 [Example 55, 7-(1-(2-Hydroxy-2-methylpropyl)-1H-pyrazol-4-yl)-1-isopropyl-3-methyl-8-(1-methyl-1H-indazol-5-yl)-3,6-dihydroimidazo[4,5-d]pyrrolo[2,3-b] pyridin-2(1H)-one]",≤ 10,≤ 10,> 1000
"Cn1ncc2cc(-c3c(-c4cnn(CC(F)F)c4)[nH]c4ncc5c(c34)n(C3CCCC3)c(=O)n5C)ccc21 [Example 56, 1-Cyclopentyl-7-(1-(2,2-difluoroethyl)-1H-pyrazol-4-yl)-3-methyl-8-(1-methyl-1H-indazol-5-yl)-3,6-dihydroimidazo[4,5-d]pyrrolo[2,3-b]pyridin-2(1H)-one]",≤ 10,≤ 10,100 to 500
"Cn1c(=O)n(C2CCCC2)c2c3c(-c4cc5cnccc5s4)c(-c4cnn(CC(F)F)c4)[nH]c3ncc21 [Example 57, 1-Cyclopentyl-7-(1-(2,2-difluoroethyl)-1H-pyrazol-4-yl)-3-methyl-8-(thieno[3,2-c]pyridin-2-yl)-3,6-dihydroimidazo[4,5-d]pyrrolo[2,3-b]pyridin-2(1H)-one]",≤ 10,≤ 10,100 to 500
"Cn1c(=O)n([C@H]2CCCOC2)c2c3c(-c4ccccc4)c(-c4ccc(CN5CCC(S(C)(=O)=O)CC5)cc4)[nH]c3ncc21 [Example 58, (S)-3-Methyl-7-(4-((4-(methylsulfonyl)piperidin-1-yl)methyl)phenyl)-8-phenyl-1-(tetrahydro-2H-pyran-3-yl)-3,6-dihydroimidazo[4,5-d]pyrrolo[2,3-b]pyridin-2(1H)-one]",10 to 100,≤ 10,100 to 500
"COc1ccc(-c2c(-c3cnn(Cc4ccncc4)c3)[nH]c3ncc4c(c23)n(C2CCCC2)c(=O)n4C)cc1 [Example 59, 1-Cyclopentyl-8-(4-methoxyphenyl)-3-methyl-7-(1-(pyridin-4-ylmethyl)-1H-pyrazol-4-yl)-3,6-dihydroimidazo[4,5-d]pyrrolo[2,3-b]pyridin-2(1H)-one]",≤ 10,≤ 10,100 to 500
"Cn1ncc2cc(-c3c(-c4ccncc4)[nH]c4ncc5c(c34)n(C3CCCC3)c(=O)n5C)ccc21 [Example 60, 1-Cyclopentyl-3-methyl-8-(1-methyl-1H-indazol-5-yl)-7-(pyridin-4-yl)-3,6-dihydroimidazo[4,5-d]pyrrolo[2,3-b]pyridin-2(1H)-one]",≤ 10,≤ 10,> 1000
"Cn1ncc2cc(-c3c(-c4cccnc4)[nH]c4ncc5c(c34)n(C3CCCC3)c(=O)n5C)ccc21 [Example 61, 1-Cyclopentyl-3-methyl-8-(1-methyl-1H-indazol-5-yl)-7-(pyridin-3-yl)-3,6-dihydroimidazo[4,5-d]pyrrolo[2,3-b]pyridin-2(1H)-one]",≤ 10,≤ 10,> 1000
"COc1ccc(-c2[nH]c3ncc4c(c3c2-c2ccc3c(cnn3C)c2)n(C(C)C)c(=O)n4C)cn1 [Example 62, 1-Isopropyl-7-(6-methoxypyridin-3-yl)-3-methyl-8-(1-methyl-1H-indazol-5-yl)-3,6-dihydroimidazo[4,5-d]pyrrolo[2,3-b]pyridin-2(1H)-one]",10 to 100,10 to 100,> 1000
"COc1ccc(-c2[nH]c3ncc4c(c3c2-c2ccc3c(cnn3C)c2)n(C2CCOCC2)c(=O)n4C)cn1 [Example 63, 7-(6-Methoxypyridin-3-yl)-3-methyl-8-(1-methyl-1H-indazol-5-yl)-1-(tetrahydro-2H-pyran-4-yl)-3,6-dihydroimidazo[4,5-d]pyrrolo[2,3-b]pyridin-2(1H)-one]",≤ 10,≤ 10,> 1000
"COc1ccc(-c2[nH]c3ncc4c(c3c2-c2ccc3c(cnn3C)c2)n(C2CCCC2)c(=O)n4C)cn1 [Example 64, 1-Cyclopentyl-7-(6-methoxypyridin-3-yl)-3-methyl-8-(1-methyl-1H-indazol-5-yl)-3,6-dihydroimidazo[4,5-d]pyrrolo[2,3-b]pyridin-2(1H)-one]",10 to 100,≤ 10,> 1000
"CC(C)Oc1ccc(-c2[nH]c3ncc4c(c3c2-c2ccc3c(cnn3C)c2)n(C2CCCC2)c(=O)n4C)cn1 [Example 65, 1-Cyclopentyl-7-(6-isopropoxypyridin-3-yl)-3-methyl-8-(1-methyl-1H-indazol-5-yl)-3,6-dihydroimidazo[4,5-d]pyrrolo[2,3-b]pyridin-2(1H)-one]",10 to 100,10 to 100,> 1000
"Cn1ncc2cc(-c3c(-c4ccc(OC5CCOCC5)nc4)[nH]c4ncc5c(c34)n(C3CCCC3)c(=O)n5C)ccc21 [Example 66, 1-Cyclopentyl-3-methyl-8-(1-methyl-1H-indazol-5-yl)-7-(6-((tetrahydro-2H-pyran-4-yl)oxy)pyridin-3-yl)-3,6-dihydroimidazo[4,5-d]pyrrolo[2,3-b]pyridin-2(1H)-one]",10 to 100,10 to 100,> 1000
